Source: patent publication US20220144839A1, “INDOLE AHR INHIBITORS AND USES THEREOF” (Ikena Oncology, Inc., priority 2018, published 2022)

Molecular target: T1, AHR (UniProt P35869)
T1 sequence (P35869 1-848): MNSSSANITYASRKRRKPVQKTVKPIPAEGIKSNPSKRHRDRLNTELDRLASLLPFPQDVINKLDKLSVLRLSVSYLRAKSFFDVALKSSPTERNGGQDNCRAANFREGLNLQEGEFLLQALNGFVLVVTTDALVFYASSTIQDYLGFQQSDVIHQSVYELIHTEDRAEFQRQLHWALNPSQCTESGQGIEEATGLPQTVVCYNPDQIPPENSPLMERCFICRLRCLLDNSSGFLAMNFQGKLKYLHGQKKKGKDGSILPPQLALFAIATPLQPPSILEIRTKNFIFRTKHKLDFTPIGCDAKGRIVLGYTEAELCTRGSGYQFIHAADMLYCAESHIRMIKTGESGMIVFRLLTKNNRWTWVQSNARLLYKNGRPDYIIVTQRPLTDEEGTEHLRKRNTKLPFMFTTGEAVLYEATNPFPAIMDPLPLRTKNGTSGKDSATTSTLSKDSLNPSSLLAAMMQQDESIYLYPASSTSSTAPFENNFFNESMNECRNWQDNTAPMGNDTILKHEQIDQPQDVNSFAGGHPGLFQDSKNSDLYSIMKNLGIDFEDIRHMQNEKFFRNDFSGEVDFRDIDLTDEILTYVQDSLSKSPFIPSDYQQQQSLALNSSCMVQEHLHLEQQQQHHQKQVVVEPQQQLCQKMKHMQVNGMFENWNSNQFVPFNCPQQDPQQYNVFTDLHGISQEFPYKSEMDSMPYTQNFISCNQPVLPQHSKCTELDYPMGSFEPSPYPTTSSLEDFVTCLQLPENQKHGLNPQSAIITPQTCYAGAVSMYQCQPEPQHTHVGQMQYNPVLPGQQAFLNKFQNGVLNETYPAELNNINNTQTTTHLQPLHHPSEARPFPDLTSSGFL
Test: DRE-Luciferase Reporter Assay (Alternate Method), Example 1B
Assay type: cell-based
Settings: concentration which inhibits half of the luciferase activity induced by AHR activating ligand; DRE-luciferase reporter cell line
Description: AHR binds to Dioxin Responsive Elements (DRE) upstream of genes that it activates. One measure of AHR activity is activation of a reporter gene, such as luciferase, downstream of one or multiple DRE elements. Luciferase activity will reflect activation and inhibition of AHR in the cells expressing his reporter.
Murine Hepa1-6 or Hepa-1c1c7 or other murine cell line with a DRE-luciferase reporter either stably or transiently transfected were plated in media in plates (96-well, 384-well or other plates) and incubated overnight at 37° C. in a C02 incubator or compound and agonist were added at the time of plating. Likewise, human HepG2 or other human cell line with a DRE-luciferase reporter either stably or transiently transfected were plated in media in plates (96-well, 384-well or other plates) and incubated overnight at 37° C. in a C02 incubator or compound and agonist were added at the time of plating.
At the time that cells are plated or following incubation overnight, an AHR activating ligand, such as TCDD, kynurenine, ITE (2-(1H-indole-3-ylcarbonyl)-4-thiazolecarboxylic methyl ester), VAF347, BNF (beta-naphthoflavone), FICZ (6-formylindolo(3,2-b) carbazole or other AHR ligands, was added with or without AHR antagonist.
Cells were incubated for 4, 15 or 24 hours or another time point and then lysed for determination of luciferase activity as a read-out of the AHR activation or inhibition. Luciferase was measured with a commercial kit such as the Promega Luciferase kit or any kit or reagents that provide the luciferin substrate for measuring luciferase activity. The level of luciferase with only activating ligand added was the maximum signal while the luciferase with no ligand was the minimum signal. IC50 values were determined as the concentration which inhibits half of the luciferase activity.

IC50 [nM]	Compound
> 1500	CC(C)c1cnn2c(N[C@@H]3CCc4[nH]c5ccccc5c4C3)nc(-n3cncn3)nc12 [Compound I-16, (3R)—N-[8-Isopropyl-2-(1,2,4-triazol-1-yl)pyrazolo[1,5-a][1,3,5]triazin-4-yl]-2,3,4,9-tetrahydro-1H-carbazol-3-amine]
> 1500	CC(C)c1cnn2c(N[C@@H]3Cc4cncnc4NC3=O)nc(-c3cncc(F)c3)nc12 [Compound I-55b, (6R)-6-[[2-(5-fluoro-3-pyridyl)-8-isopropyl-pyrazolo[1,5-a][1,3,5]triazin-4-yl]amino]-6,8-dihydro-5H-pyrido[2,3-d]pyrimidin-7-one]
> 1500	CC(C)c1cnn2c(N[C@@H]3CCc4c(ccnc4N)C3)nc(-c3cncc(F)c3)nc12 [Compound I-63a, (6R)—N6-[2-(5-Fluoro-3-pyridyl)-8-isopropyl-pyrazolo[1,5-a][1,3,5]triazin-4-yl]-5,6,7,8-tetrahydroisoquinoline-1,6-diamine]
> 1500	CC(C)c1cnn2c(N[C@H]3CCc4c(ccnc4N)C3)nc(-c3cncc(F)c3)nc12 [Compound I-63b, (6S)—N6-[2-(5-fluoro-3-pyridyl)-8-isopropyl-pyrazolo[1,5-a][1,3,5]triazin-4-yl]-5,6,7,8-tetrahydroisoquinoline-1,6-diamine]
< 500	COC[C@H](C)c1cnn2c(N[C@@H]3CCc4[nH]c5ccccc5c4C3)nc(-c3cncc(F)c3)nc12 [Compound I-64a, (3R)—N-[2-(5-Fluoro-3-pyridyl)-8-[(1R)-2-methoxy-1-methyl-ethyl]pyrazolo[1,5-a][1,3,5]triazin-4-yl]-2,3,4,9-tetrahydro-1H-carbazol-3-amine]
< 500	C[C@H](O)c1cnc2c(N[C@@H]3CCc4[nH]c5ccccc5c4C3)nc(-c3cncc(F)c3)nn12 [Compound I-42a, (1S)-1-[2-(5-Fluoro-3-pyridyl)-4-[[(3R)-2,3,4,9-tetrahydro-1H-carbazol-3-yl]amino]imidazo[2,1-f][1,2,4]triazin-7-yl]ethanol]
< 500	[2H]C([2H])([2H])C(c1cnn2c(N[C@@H]3CCc4[nH]c5ccccc5c4C3)nc(-c3cncc(F)c3)nc12)C([2H])([2H])[2H] [Compound I-59, (3R)—N-[2-(5-Fluoro-3-pyridyl)-8-[2,2,2-trideuterio-1-(trideuteriomethyl)ethyl]pyrazolo[1,5-a][1,3,5]triazin-4-yl]-2,3,4,9-tetrahydro-1H-carbazol-3-amine]
> 1500	CC(C)c1cnn2c(N[C@H]3Cc4[nH]cnc4NC3=O)nc(-c3cncc(F)c3)nc12 [Compound I-62a, (6S)-6-[[2-(5-Fluoro-3-pyridyl)-8-isopropyl-pyrazolo[1,5-a][1,3,5]triazin-4-yl]amino]-1,4,6,7-tetrahydroimidazo[4,5-b]pyridin-5-one]
> 1500	CC(C)c1cnn2c(N[C@H]3Cc4cncnc4NC3=O)nc(-c3cncc(F)c3)nc12 [Compound I-55a]
> 1500	CC(C)c1cnn2c(NCCCCO)nc(-c3cnsc3)nc12 [Compound I-54, 4-[(8-Isopropyl-2-isothiazol-4-yl-pyrazolo[1,5-a][1,3,5]triazin-4-yl)amino]butan-1-ol]
< 500	C[C@@H](CO)c1cnn2c(N[C@@H]3CCc4[nH]c5ccccc5c4C3)nc(-c3cncc(F)c3)nc12 [Compound I-25a, (2R)-2-[2-(5-Fluoro-3-pyridyl)-4-[[(3R)-2,3,4,9-tetrahydro-1H-carbazol-3-yl]amino]pyrazolo[1,5-a][1,3,5]triazin-8-yl]propan-1-ol]
> 1500	CC(C)c1cnn2c(N[C@H]3CCc4[nH]c5ccc(O)cc5c4C3)nc(-c3cncc(F)c3)nc12 [Compound I-34a, (6S)-6-[[2-(5-Fluoro-3-pyridyl)-8-isopropyl-pyrazolo[1,5-a][1,3,5]triazin-4-yl]amino]-6,7,8,9-tetrahydro-5H-carbazol-3-ol]
< 500	C[C@@H](N)c1cnn2c(N[C@@H]3CCc4[nH]c5ccccc5c4C3)nc(-c3cncc(F)c3)nc12 [Compound I-32b, (3R)—N-[8-[(1R)-1-aminoethyl]-2-(5-fluoro-3-pyridyl)pyrazolo[1,5-a][1,3,5]triazin-4-yl]-2,3,4,9-tetrahydro-1H-carbazol-3-amine]
> 1500	CC(C)c1cnn2c(N[C@H]3CCc4[nH]c5cc(O)ccc5c4C3)nc(-c3cncc(F)c3)nc12 [Compound I-27b, (6S)-6-[[2-(5-Fluoro-3-pyridyl)-8-isopropyl-pyrazolo[1,5-a][1,3,5]triazin-4-yl]amino]-6,7,8,9-tetrahydro-5H-carbazol-2-ol]

More lines, now with the values behind:

Compound	IC50 [nM]
CC(C)c1cnn2c(N[C@@H]3CCc4ccccc4C3)nc(-c3cncc(F)c3)nc12 [Compound I-48a, 2-(5-Fluoro-3-pyridyl)-8-isopropyl-N-[(2R)-tetralin-2-yl]pyrazolo[1,5-a][1,3,5]triazin-4-amine]	> 1500
Fc1cncc(-c2nc(N[C@@H]3CCc4[nH]c5ccccc5c4C3)n3ncc(-c4cnn[nH]4)c3n2)c1 [Compound I-10, (3R)—N-[2-(5-Fluoro-3-pyridyl)-8-(1H-triazol-5-yl)pyrazolo[1,5-a][1,3,5]triazin-4-yl]-2,3,4,9-tetrahydro-1H-carbazol-3-amine]	< 500
Fc1cc(-c2nc(N[C@@H]3CCc4[nH]c5ccccc5c4C3)n3nccc3n2)cnc1[C@H]1CCCN1 [Compound I-26b, (3R)—N-[2-[5-Fluoro-6-[(2R)-pyrrolidin-2-yl]-3-pyridyl]pyrazolo[1,5-a][1,3,5]triazin-4-yl]-2,3,4,9-tetrahydro-1H-carbazol-3-amine]	> 1500
Fc1cncc(-c2nc(N[C@@H]3CCc4[nH]c5ccccc5c4C3)n3nc4c(c3n2)COCC4)c1 [Compound I-33, 2-(5-fluoro-3-pyridyl)-N-[(3R)-2,3,4,9-tetrahydro-1H-carbazol-3-yl]-8,10-dihydro-7H-pyrano[2,3]pyrazolo[2,4-c][1,3,5]triazin-4-amine]	< 500
CC(C)c1cnn2c(N[C@H]3CCc4[nH]c5ccccc5c4C3)nc(-c3cncc(F)c3)nc12 [Compound I-47, (3S)—N-[2-(5-Fluoro-3-pyridyl)-8-isopropyl-pyrazolo[1,5-a][1,3,5]triazin-4-yl]-2,3,4,9-tetrahydro-1H-carbazol-3-amine]	< 500
Fc1cncc(-c2nc(N[C@@H]3CCc4[nH]c5ccccc5c4C3)n3nc4c(c3n2)CNCC4)c1 [Compound I-50, 2-(5-Fluoro-3-pyridyl)-N-[(3R)-2,3,4,9-tetrahydro-1H-carbazol-3-yl]-7,8,9,10-tetrahydropyrido[2,3]pyrazolo[2,4-c][1,3,5]triazin-4-amine]	> 1500
CC(CO)CNc1nc(-c2cncc(F)c2)nc2c(C(C)C)cnn12 (stereo not drawn) [Compound I-49, 3-[[2-(5-Fluoro-3-pyridyl)-8-isopropyl-pyrazolo[1,5-a][1,3,5]triazin-4-yl]amino]-2-methyl-propan-1-ol]	> 1500
O[C@@H](c1cnn2c(N[C@@H]3CCc4[nH]c5ccccc5c4C3)nc(-c3cncc(F)c3)nc12)C(F)(F)F [Compound I-41b, (1S)-2,2,2-trifluoro-1-[2-(5-fluoro-3-pyridyl)-4-[[(3R)-2,3,4,9-tetrahydro-1H-carbazol-3-yl]amino]pyrazolo[1,5-a][1,3,5]triazin-8-yl]ethanol]	< 500
CC(CO)CCNc1nc(-c2cncc(F)c2)nc2c(C(C)C)cnn12 (stereo not drawn) [Compound I-40, 4-[[2-(5-Fluoro-3-pyridyl)-8-isopropyl-pyrazolo[1,5-a][1,3,5]triazin-4-yl]amino]-2-methyl-butan-1-ol]	> 1500
COC[C@@H](C)c1cnn2c(N[C@@H]3CCc4[nH]c5ccccc5c4C3)nc(-c3cncc(F)c3)nc12 [Compound I-64b, (3R)—N-[2-(5-fluoro-3-pyridyl)-8-[(1S)-2-methoxy-1-methyl-ethyl]pyrazolo[1,5-a][1,3,5]triazin-4-yl]-2,3,4,9-tetrahydro-1H-carbazol-3-amine]	< 500
